Assays:
HCT116-WT cells = assay: Inhibitory activity against cell proliferation (CellTiter Glo, 6 days), HCT116-WT; type: cell-based; settings: 144 h, HCT116-WT cells, 6 days, CellTiter Glo; read-out: HCT116-WT IC50
In short: (§1)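 Viability IC50s come from CellTiter Glo luminescence after 6 days' exposure to compound (8 concentrations, 4-fold steps, top 10000 nM), relative to DMSO wells. Cells were MTAP-KO or WT HCT116, seeded at 250 per well in McCoy's 5A with 10% FBS and incubated overnight before dosing.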

PRMT5-MTA = PRMT5-MTA (Homo sapiens, UniProt O14744); assay: Enzymatic inhibitory activity against PRMT5-MTA (AlphaScreen); type: biochemical; settings: read-out: IC50
In short: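 PRMT5/[…] (1 nM) was preincubated for 30 min at room temperature with 1 µM […] and 2.5 µM SAM, then exposed to compound (10-point, 3-fold from 1000 nM) for 15 min at 23 °C. Histone H4 substrate (5 nM) was added and reacted for 45 min at 23 °C. Symmetric dimethyl-R3 H4 was detected by AlphaScreen and IC50 calculated.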

HCT116 MTAP KO cells = assay: Inhibitory activity against cell proliferation (CellTiter Glo, 6 days), HCT116 MTAP KO; type: cell-based; settings: for IC50: Homo sapiens, HCT-116, 144 h, HCT116 MTAP KO cells, 6 days, CellTiter Glo, read-out: HCT116 MTAP KO IC50; for Selectivity HCT 116-WT/ HCT116 MTAP KO: ratio of IC50 HCT116-WT / HCT116 MTAP KO
In short: as §1

Sequence of PRMT5-MTA (O14744 whole entry): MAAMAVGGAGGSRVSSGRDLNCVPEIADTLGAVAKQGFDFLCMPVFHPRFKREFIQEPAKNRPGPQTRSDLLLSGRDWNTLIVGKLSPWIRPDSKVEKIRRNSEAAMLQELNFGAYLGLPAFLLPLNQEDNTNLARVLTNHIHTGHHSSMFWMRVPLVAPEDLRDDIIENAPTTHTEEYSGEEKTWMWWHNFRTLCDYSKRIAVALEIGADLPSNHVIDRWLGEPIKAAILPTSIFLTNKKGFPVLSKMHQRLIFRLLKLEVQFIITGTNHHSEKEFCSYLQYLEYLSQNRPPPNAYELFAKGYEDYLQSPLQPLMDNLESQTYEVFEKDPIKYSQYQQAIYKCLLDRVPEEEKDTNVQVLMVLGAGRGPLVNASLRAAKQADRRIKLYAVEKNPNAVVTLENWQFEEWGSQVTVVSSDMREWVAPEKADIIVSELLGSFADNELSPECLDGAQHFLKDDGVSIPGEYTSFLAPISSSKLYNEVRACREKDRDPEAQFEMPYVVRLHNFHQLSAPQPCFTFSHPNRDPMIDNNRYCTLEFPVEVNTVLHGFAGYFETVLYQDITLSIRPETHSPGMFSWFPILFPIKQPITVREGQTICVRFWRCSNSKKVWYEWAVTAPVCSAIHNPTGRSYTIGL
Sequence of PRMT5-MTA (Q9BQA1 whole entry partner): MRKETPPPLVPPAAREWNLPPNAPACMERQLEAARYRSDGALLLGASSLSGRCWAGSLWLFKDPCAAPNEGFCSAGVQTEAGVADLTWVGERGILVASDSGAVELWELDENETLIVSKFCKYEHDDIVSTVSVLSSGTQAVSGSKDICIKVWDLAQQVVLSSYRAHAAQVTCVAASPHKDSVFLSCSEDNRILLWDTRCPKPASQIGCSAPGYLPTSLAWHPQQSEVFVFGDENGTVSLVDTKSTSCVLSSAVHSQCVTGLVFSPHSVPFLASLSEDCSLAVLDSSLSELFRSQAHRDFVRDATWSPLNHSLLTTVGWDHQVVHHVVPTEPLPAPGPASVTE

COC1CN(C(=O)c2cc3c(cc2Cl)nc(N)c2cnn(C)c23)N(c2ncc(F)cc2F)C1 (centres unmarked) [Example 442, (4-amino-7-chloro-1-methyl-1H-pyrazolo [4,3-c]quinolin-8-yl)(2-(3,5-2 fluoropyridin-2-yl)-4-methoxypyrazolidin-1-yl)methanone]
IC50 (HCT116-WT cells): 634 nM
IC50 (PRMT5-MTA): 4.6 nM
IC50 (HCT116 MTAP KO cells): 42 nM
Selectivity HCT 116-WT/ HCT116 MTAP KO (HCT116 MTAP KO cells): 15.10

Cc1cc2cc(C(=O)N(Cc3ccc(C4=CCOCC4)cn3)N(C)c3ncccn3)ccc2nc1N [Example 159, 2-amino-N-((5-(3,6-dihydro-2H-pyran-4-yl)pyridin-2-yl)methyl)-N',3-dimethyl-N' -(pyrimidin-2-yl)quinoline-6-carbohydrazide]
IC50 (HCT116-WT cells): 2070 nM
IC50 (PRMT5-MTA): 3.3 nM
IC50 (HCT116 MTAP KO cells): 72 nM
Selectivity HCT 116-WT/ HCT116 MTAP KO (HCT116 MTAP KO cells): 28.76

[2H]C([2H])([2H])c1cc2cc(C(=O)N(Cc3ccc(C(F)(F)F)cn3)N(C)c3ncccn3)ccc2nc1N [Example 310, 2-amino-N'-methyl-3-(methyl-d3)-N'-(pyrimidin-2-yl)-N-((5-(trifluoromethyl)pyridin-2-yl)methyl)quinoline-6-carbohydrazide]
IC50 (HCT116-WT cells): 1120 nM
IC50 (PRMT5-MTA): 1.8 nM
IC50 (HCT116 MTAP KO cells): 33 nM
Selectivity HCT 116-WT/ HCT116 MTAP KO (HCT116 MTAP KO cells): 34.09

COC1CN(C(=O)c2cc3c(cc2Cl)nc(N)c2cnn(C)c23)N(c2ncc(Br)cc2F)C1 (centres unmarked) [Example 439, (4-amino-7-chloro-1-methyl-1H-pyrazolo [4,3-c]quinolin-8-yl)(2-(5-bromo-3-fluor opyridin-2-yl)-4-methoxypyrazolidin-1-yl)methanone]
IC50 (HCT116-WT cells): 735 nM
IC50 (PRMT5-MTA): 5.5 nM
IC50 (HCT116 MTAP KO cells): 37 nM
Selectivity HCT 116-WT/ HCT116 MTAP KO (HCT116 MTAP KO cells): 19.86

[2H]C([2H])([2H])N(c1nccc2nccnc12)N(Cc1ccc(C(F)(F)F)cn1)C(=O)c1ccc2nc(N)c(C)cc2c1 [Example 62]
IC50 (HCT116-WT cells): 1500 nM
IC50 (PRMT5-MTA): 5.1 nM
IC50 (HCT116 MTAP KO cells): 86 nM
Selectivity HCT 116-WT/ HCT116 MTAP KO (HCT116 MTAP KO cells): 17.42

Cc1cc2cc(C(=O)N(Cc3ccc(C4CCOCC4)cn3)N(C)c3ncccn3)ccc2nc1N [Example 218, 2-amino-N',3-dimethyl-N'-(pyrimidin-2-yl)-N-((5-(tetrahydro-2H-pyran-4-yl)pyridin-2-yl)methyl)quinoline-6-carbohydrazide]
IC50 (HCT116-WT cells): 3070 nM
IC50 (PRMT5-MTA): 7 nM
IC50 (HCT116 MTAP KO cells): 291 nM
Selectivity HCT 116-WT/ HCT116 MTAP KO (HCT116 MTAP KO cells): 10.56

Cc1ccc(-c2ccc(CN(C(=O)c3ccc4nc(N)c(C)cc4c3)N(C)c3ncccn3)nc2)cn1 [Example 160, 2-amino-N',3-dimethyl-N-((6'-methyl-[3, 3'-bipyridine]-6-yl)methyl)-N'-(pyrimidin-2-yl)quinoline-6-carbohydrazide]
IC50 (HCT116-WT cells): 580 nM
IC50 (PRMT5-MTA): 2 nM
IC50 (HCT116 MTAP KO cells): 27 nM
Selectivity HCT 116-WT/ HCT116 MTAP KO (HCT116 MTAP KO cells): 21.48

Cc1cc2cc(C(=O)N(Cc3ccc(C(F)(F)F)cn3)N3CCc4cccnc43)ccc2nc1N [Example 22, 2-amino-N-(2,3-dihydro-1H-pyrrolo[2,3-b]pyridin-1-yl)-3-methyl-N-((5-(trifluoromethy 1)pyridin-2-yl)methyl)quinoline-6-carboxamide]
IC50 (HCT116-WT cells): 2290 nM
IC50 (PRMT5-MTA): 4.3 nM
IC50 (HCT116 MTAP KO cells): 129 nM
Selectivity HCT 116-WT/ HCT116 MTAP KO (HCT116 MTAP KO cells): 17.78

[2H]C([2H])([2H])N(c1ncccn1)N(Cc1ccc(Br)cn1)C(=O)c1ccc2nc(N)c(C)cc2c1 [Example 64, 2-amino-N-((5-bromopyridin-2-yl)methyl)-3-methyl-N'-(methyl-d3)-N'-(pyrimidin-2-yl)quinoline-6-carbohydrazide]
IC50 (HCT116-WT cells): 918 nM
IC50 (PRMT5-MTA): 1.7 nM
IC50 (HCT116 MTAP KO cells): 38 nM
Selectivity HCT 116-WT/ HCT116 MTAP KO (HCT116 MTAP KO cells): 24.16

Cc1cc2cc(C(=O)N(Cc3ccc(-c4ccn(C)n4)cn3)N(C)c3ncccn3)ccc2nc1N [Example 168, 2-amino-N',3-dimethyl-N-((5-(1-methyl-1H-pyrazol-3-yl)pyridin-2-yl)methyl)-N'-(pyrimidin-2-yl)quinoline-6-carbohydrazide]
IC50 (HCT116-WT cells): 2570 nM
IC50 (PRMT5-MTA): 2.6 nM
IC50 (HCT116 MTAP KO cells): 194 nM
Selectivity HCT 116-WT/ HCT116 MTAP KO (HCT116 MTAP KO cells): 13.26

Cc1cc2cc(C(=O)N(Cc3ccc(-c4cccnc4)cc3F)N(C)c3ncccn3)ccc2nc1N [Example 177, 2-amino-N-(2-fluoro-4-(pyridin-3-yl)benzyl)-N',3-dimethyl-N'-(pyrimidin-2-yl)qu inoline-6-carbohydrazide]
IC50 (HCT116-WT cells): 936 nM
IC50 (PRMT5-MTA): 1.1 nM
IC50 (HCT116 MTAP KO cells): 30 nM
Selectivity HCT 116-WT/ HCT116 MTAP KO (HCT116 MTAP KO cells): 31.20

Cc1cc2cc(C(=O)N(Cc3ccc(C(F)(F)F)cn3)N(C)c3cnccn3)ccc2nc1N [Example 34, 2-amino-N',3-dimethyl-N'-(pyrazin-2-yl) -N-((5-(trifluoromethyl)pyridin-2-yl)methyl)quinoline-6-carbohydrazide]
IC50 (HCT116-WT cells): 1270 nM
IC50 (PRMT5-MTA): 1.5 nM
IC50 (HCT116 MTAP KO cells): 58 nM
Selectivity HCT 116-WT/ HCT116 MTAP KO (HCT116 MTAP KO cells): 21.90

Cc1cc2cc(C(=O)N(Cc3ccc(C(F)(F)F)cn3)N(C)c3ncccc3C(F)F)ccc2nc1N [Example 117, 2-amino-N'-(3-(difluoromethyl)pyridin-2-yl)-N',3-dimethyl-N-((5-(trifluoromethyl)pyridin-2-yl)methyl)quinoline-6-carbohydrazide]
IC50 (HCT116-WT cells): 1250 nM
IC50 (PRMT5-MTA): 1.8 nM
IC50 (HCT116 MTAP KO cells): 89 nM
Selectivity HCT 116-WT/ HCT116 MTAP KO (HCT116 MTAP KO cells): 14.00

Cc1cc2cc(C(=O)N(Cc3ccc(C(F)(F)F)cn3)N(C)c3nccc4ccncc34)ccc2nc1N [Example 266, 2-amino-N',3-dimethyl-N'-(2,7-naphthyridin-1-yl)-N-((5-(trifluoromethyl)pyridin-2-yl)methyl)quinoline-6-carbohydrazide]
IC50 (HCT116-WT cells): 3140 nM
IC50 (PRMT5-MTA): 2.6 nM
IC50 (HCT116 MTAP KO cells): 231 nM
Selectivity HCT 116-WT/ HCT116 MTAP KO (HCT116 MTAP KO cells): 13.60

Cc1cc2cc(C(=O)N(Cc3ccc(C(F)(F)F)cn3)N(C)c3nccc4sccc34)ccc2nc1N [Example 271, 2-amino-N',3-dimethyl-N'-(thieno[3,2-c]pyridin-4-yl)-N-((5-(trifluoromethyl)pyridin-2-yl)methyl)quinoline-6-carbohydrazide]
IC50 (HCT116-WT cells): 1190 nM
IC50 (PRMT5-MTA): 2.7 nM
IC50 (HCT116 MTAP KO cells): 89 nM
Selectivity HCT 116-WT/ HCT116 MTAP KO (HCT116 MTAP KO cells): 13.42

Cc1cc2cc(C(=O)N(Cc3ccc(-c4ccncc4)cn3)N(C)c3ncccn3)ccc2nc1N [Example 173, N-([3,4'-bipyridine]-6-ylmethyl)-2-amino -N',3-dimethyl-N'-(pyrimidin-2-yl)quinoline-6-carbohydrazide]
IC50 (HCT116-WT cells): 633 nM
IC50 (PRMT5-MTA): 1.9 nM
IC50 (HCT116 MTAP KO cells): 21 nM
Selectivity HCT 116-WT/ HCT116 MTAP KO (HCT116 MTAP KO cells): 30.14

C=C1CN(C(=O)c2cc3c(cc2Cl)nc(N)c2cnn(C)c23)N(c2cccc(F)n2)C1 [Example 435, (4-amino-7-chloro-1-methyl-1H-pyrazolo [4,3-c]quinolin-8-yl)(2-(6-fluoropyridin-2-yl)-4-methylenepyrazolidin-1-yl)methanone]
IC50 (HCT116-WT cells): 407 nM
IC50 (PRMT5-MTA): 7.3 nM
IC50 (HCT116 MTAP KO cells): 15 nM
Selectivity HCT 116-WT/ HCT116 MTAP KO (HCT116 MTAP KO cells): 27.13

Cn1ncc2c(N)nc3cc(Cl)c(C(=O)N4CC5(CN4c4ncccc4F)CC(F)(F)C5)cc3c21 [Example 411, (4-amino-7-chloro-1-methyl-1H-pyrazolo [4,3-c]quinolin-8-yl)(2,2-difluoro-7-(3-fluoropyridin-2-yl)-6,7-diazaspiro[3.4]octan-6-yl)methanone]
IC50 (HCT116-WT cells): 221 nM
IC50 (PRMT5-MTA): 6.3 nM
IC50 (HCT116 MTAP KO cells): 15 nM
Selectivity HCT 116-WT/ HCT116 MTAP KO (HCT116 MTAP KO cells): 14.73

Cc1cc2cc(C(=O)N(Cc3ccc(C(F)(F)F)cn3)N(C)c3ncc(F)cn3)ccc2nc1N [Example 95, 2-amino-N'-(5-fluoropyrimidin-2-yl)-N',3-dimethyl-N-((5-(trifluoromethyl)pyridin-2-yl)methyl)quinoline-6-carbohydrazide]
IC50 (HCT116-WT cells): 2460 nM
IC50 (PRMT5-MTA): 2.1 nM
IC50 (HCT116 MTAP KO cells): 70 nM
Selectivity HCT 116-WT/ HCT116 MTAP KO (HCT116 MTAP KO cells): 35.14

CCc1ncsc1-c1ccc(CN(C(=O)c2ccc3nc(N)c(C)cc3c2)N(C)c2ncccn2)nc1 [Example 241, 2-amino-N-((5-(4-ethylthiazol-5-yl)pyridin-2-yl)methyl)-N',3-dimethyl-N'-(pyrimidin-2-yl)quinoline-6-carbohydrazide]
IC50 (HCT116-WT cells): 676 nM
IC50 (PRMT5-MTA): 7.3 nM
IC50 (HCT116 MTAP KO cells): 37 nM
Selectivity HCT 116-WT/ HCT116 MTAP KO (HCT116 MTAP KO cells): 18.27

Cc1cc2cc(C(=O)N(Cc3c(F)cc(Br)cc3F)N(C)c3ncccn3)ccc2nc1N [Example 278, 2-amino-N-(4-bromo-2,6-difluorobenzyl) -N',3-dimethyl-N'-(pyrimidin-2-yl)quinoline-6-carbohydrazide]
IC50 (HCT116-WT cells): 395 nM
IC50 (PRMT5-MTA): 1.5 nM
IC50 (HCT116 MTAP KO cells): 28 nM
Selectivity HCT 116-WT/ HCT116 MTAP KO (HCT116 MTAP KO cells): 14.11

Cn1ncc2c(N)nc3cc(Cl)c(C(=O)N4CC5(CN4c4ncc(Br)cc4F)CC(F)(F)C5)cc3c21 [Example 413, (4-amino-7-chloro-1-methyl-1H-pyrazolo [4,3-c]quinolin-8-yl)(7-(5-bromo-3-fluor opyridin-2-yl)-2,2-difluoro-6,7-diazaspiro[3.4]octan-6-yl)methanone]
IC50 (HCT116-WT cells): 390 nM
IC50 (PRMT5-MTA): 4.3 nM
IC50 (HCT116 MTAP KO cells): 26 nM
Selectivity HCT 116-WT/ HCT116 MTAP KO (HCT116 MTAP KO cells): 15.00

CN(c1ccccc1)N(Cc1ccc(C(F)(F)F)cn1)C(=O)c1ccc2nc(N)c3cnn(C)c3c2c1 [Example 52, 4-amino-N',1-dimethyl-N'-phenyl-N-((5-(trifluoromethyl)pyridin-2-yl)methyl)-1H-pyrazolo[4,3-c]quinoline-8-carbohydrazide]
IC50 (HCT116-WT cells): 417 nM
IC50 (PRMT5-MTA): 3.7 nM
IC50 (HCT116 MTAP KO cells): 13 nM
Selectivity HCT 116-WT/ HCT116 MTAP KO (HCT116 MTAP KO cells): 32.08

Reference: patent publication EP4745134A1 (Jiangsu Yahong Meditech Co., Ltd., priority 2023, dated 2025)
